# Data reported in patent US12240862B2, “Inhibitors of peptidylarginine deiminases” (Gilead Sciences, Inc., priority 2020, dated 2025).
# Target: T1, human PAD4 (Homo sapiens, UniProt Q9UM07)
# T1 construct: human PAD4 (NM_012387), A2P663, was PCR amplified; His-SUMO (N, cleaved yes); made in house; host or cells: E. coli BL21(DE3)
# Test: In vitro PAD4 BAEE biochemical assay
# Settings: human PAD4, BAEE substrate; 5 nM PAD4, 2 mM calcium chloride, 3 mM BAEE; geometric mean of multiple experiments
# Description: The PCR product was ligated into linearized pET-SUMO vector (Invitrogen, Carlsbad, CA), which is part of the Champion™ pET SUMO Protein Expression System. After sequence verification for the correct orientation, the pET-SUMO-hPAD4 expression plasmid was transformed into BL21(DE3) cells.
# E. Coli BL21(DE3) cells were inoculated in LB medium with kanamycin at 37° C. until A600 nm reached about 0.5. Protein expression was induced by addition of 0.5 mM IPTG (final) and continued overnight at 16° C. at 220 rpm.
# Cells were harvested by centrifugation at 5000 rpm for 10 minutes at 4° C. The pellet was resuspended in 300 ml lysis buffer (20 mM Tris-HCl, pH 8.0, 1 mM EDTA, 500 mM NaCl, 1 mM (tris(2-carboxyethyl)phosphine) (TCEP), 10% glycerol, and 1% Triton X100 and EDTA free protease inhibitor) and lysed by 3× passage through a microfluidizer (Microfluidics, Newton, MA) at 18,000 psi. The cell lysate was clarified by centrifugation at 30,000 rpm for 60 minutes at 4° C. […] Bound protein was eluted with a 0-100% linear gradient of 100 mL Ni-B buffer (Ni A buffer+0.5 M Imidazole).
# The protein was then reloaded onto a Ni—HP column for a reverse purification step and recovered in flow through fraction. The protein with His-Sumo tag removed was then polished using a 16/60 Superdex-200 gel filtration column with gel filtration buffer (20 mM Tris pH 8.0, NaCl 400 mM and 1 mM TCEP). The fractions containing the protein were pulled and frozen at −80° C.
# The enzymatic activity of human PAD4 was monitored in a biochemical assay in the presence or absence of compounds using the small peptidyl arginine mimic BAEE (Na-Benzoyl-L-arginine ethyl ester hydrochloride) as substrate. PAD4 activity led to deamination of BAEE and release of ammonia. Levels of ammonia were monitored by using an amine coupling reaction and were indicative of PAD4 enzymatic activity.
# One hundred nanoliters of test compounds dissolved in DMSO at various concentrations were dispensed into a 384-well black OptiPlate using a Labcyte Echo instrument. Ten microliters of a solution of recombinant PAD4 and calcium chloride diluted in PAD4 assay buffer (50 mM MOPS [3-(N-morpholino) propanesulfonic acid], pH 7.6; 50 mM sodium chloride; 0.05% Tween-20; 2 mM dithiothreitol) was added to the compound-containing plate and was incubated for 30 minutes at 25° C. Ten microliters of a solution of BAEE (Sigma-Aldrich #B4500) diluted in PAD4 assay buffer was then added to start the reaction. Final concentrations were 5 nM PAD4, 2 mM calcium chloride, and 3 mM BAEE. The reaction mixture was incubated at 25° C. for 2 hours and was stopped with the addition of 10 microliters of a solution of 75 mM EDTA (Ethylenediaminetetraacetic acid) in PAD4 assay buffer. Thirty microliters of detection solution (5 mM o-phthalaldehyde, 50 mM MOPS [3-(N-morpholino) propanesulfonic acid], pH 7.6; 50 mM sodium chloride; 0.05% Tween-20; 5 mM dithiothreitol) was then added and the reaction was incubated for 1 hour at 25° C.
# T1 sequence (Q9UM07 2-663): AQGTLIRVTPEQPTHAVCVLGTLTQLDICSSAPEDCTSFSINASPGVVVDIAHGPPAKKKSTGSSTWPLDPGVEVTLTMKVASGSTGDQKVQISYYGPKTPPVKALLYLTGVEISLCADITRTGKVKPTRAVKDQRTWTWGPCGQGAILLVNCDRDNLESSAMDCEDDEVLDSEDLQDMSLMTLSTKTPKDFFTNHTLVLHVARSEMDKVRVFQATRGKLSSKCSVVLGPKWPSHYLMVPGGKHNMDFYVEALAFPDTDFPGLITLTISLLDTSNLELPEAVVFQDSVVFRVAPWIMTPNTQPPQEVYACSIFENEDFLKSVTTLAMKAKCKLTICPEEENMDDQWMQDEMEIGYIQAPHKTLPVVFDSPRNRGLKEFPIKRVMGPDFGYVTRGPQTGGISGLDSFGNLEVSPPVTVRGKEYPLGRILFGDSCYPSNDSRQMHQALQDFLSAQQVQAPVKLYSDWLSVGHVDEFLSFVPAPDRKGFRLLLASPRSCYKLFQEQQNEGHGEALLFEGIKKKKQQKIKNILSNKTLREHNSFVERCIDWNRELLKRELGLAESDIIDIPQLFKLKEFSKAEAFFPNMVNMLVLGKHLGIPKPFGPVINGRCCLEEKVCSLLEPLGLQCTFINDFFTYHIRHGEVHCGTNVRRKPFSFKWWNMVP
row,Structure (SMILES),IC50 [µM]
1,"COc1cc(C(=O)N2CCC[C@@H](N)C2)cc2nc(-c3cc4ccc([C@@H](C)N(C)C(=O)c5ccccc5)nc4n3CC3CC3)c(C)n12 [Example 186, ~{N}-[(1~{R})-1-[2-[7-[(3~{R})-3-aminopiperidine-1-carbonyl]-5-methoxy-3-methylimidazo [1,2-a]pyridin-2-yl]-1-(cyclopropylmethyl)pyrrolo [2,3-b]pyridin-6-yl]ethyl]-~{N}-methylbenzamide]",0.274
2,"COc1cc(C(=O)N2CCC[C@@H](N)C2)cc2nc(-c3cc4ccc([C@@H](C)N(C)C(C)=O)nc4n3CC3CC3)c(C)n12 [Example 187, ~{N}-[(1~{R})-1-[2-[7-[(3~{R})-3-aminopiperidine-1-carbonyl]-5-methoxy-3-methylimidazo [1,2-a]pyridin-2-yl]-1-(cyclopropylmethyl)pyrrolo [2,3-b]pyridin-6-yl]ethyl]-~{N}-methylacetamide]",0.3
3,"COc1cc(C(=O)N2[C@H]3CC[C@@H]2[C@H](N)C3)cc2nc(-c3cc4ccc(C5=CC(=O)NCC5)nc4n3CC3CC3)c(C)n12 [Example 561, 4-[2-[7-[(1~{R},2~{R}, 4~{S})-2-amino-7-azabicyclo[2.2.1]heptane-7-carbonyl]-5-methoxy-3-methylimidazo[1,2-a]pyridin-2-yl]-1-(cyclopropylmethyl)pyrrolo[2,3-b]pyridin-6-yl]-2,3-dihydro-1~{H}-pyridin-6-one]",0.193
4,"COc1cc(C(=O)N2CCC[C@@H](N)C2)cc2nc(-c3cc4ccc(N(C(F)F)S(=O)(=O)C5CC5)nc4n3CC3CC3)c(C)n12 [Example 413, ~{N}-[2-[7-[(3~{R})-3-aminopiperidine-1-carbonyl]-5-methoxy-3-methylimidazo [1,2-a]pyridin-2-yl]-1-(cyclopropylmethyl)pyrrolo [2,3-b]pyridin-6-yl]-~{N}-(difluoromethyl) cyclopropanesulfonamide]",0.253
5,"COc1cc(C(=O)N2CCC[C@@H](N)C2)cc2nc(-c3cc4ccc(C5CC5C(=O)N(C)C)nc4n3CC3CC3)c(C)n12 (stereo partly shown) [Example 533, 2-[2-[7-[(3~{R})-3-aminopiperidine-1-carbonyl]-5-methoxy-3-methylimidazo[1,2-a]pyridin-2-yl]-1-(cyclopropylmethyl)pyrrolo[2,3-b]pyridin-6-yl]-~{N},~{N}-dimethylcyclopropane-1-carboxamide]",0.933
6,"CCc1ccc2cc(-c3nc4cc(C(=O)N5[C@H]6CC[C@@H]5[C@H](N)C6)cc(OC)n4c3C)n(CCO)c2n1 [Example 497, [(1~{R},2~{R},4~{S})-2-amino-7-azabicyclo [2.2.1]heptan-7-yl]-[2-[6-ethyl-1-(2-hydroxyethyl)pyrrolo[2,3-b]pyridin-2-yl]-5-methoxy-3-methylimidazo [1,2-a]pyridin-7-yl]methanone]",1.23
7,"COc1cc(C(=O)N2[C@H]3CC[C@@H]2[C@H](N)C3)cc2nc(-c3cc4ccc(C5CCN(C(=O)N6CCCC6)C5)nc4n3CC3CC3)c(C)n12 (stereo partly shown) [Example 529, [(1~{R},2~{R},4~{S})-2-amino-7-azabicyclo [2.2.1]heptan-7-yl]-[2-[1-(cyclopropylmethyl)-6-[1-(pyrrolidine-1-carbonyl)pyrrolidin-3-yl]pyrrolo [2,3-b]pyridin-2-yl]-5-methoxy-3-methylimidazo [1,2-a]pyridin-7-yl] methanone]",0.151
8,"COc1cc(C(=O)N2[C@H]3CC[C@@H]2[C@H](N)C3)cc2nc(-c3cc4ccc([C@@H](C)NC(=O)NCc5ccccc5)nc4n3CC3CC3)c(C)n12 [Example 233, 1-[(1~{R})-1-[2-[7-[(1~{R},2~{R},4~{S})-2-amino-7-azabicyclo[2.2.1]heptane-7-carbonyl]-5-methoxy-3-methylimidazo [1,2-a]pyridin-2-yl]-1-(cyclopropylmethyl)pyrrolo [2,3-b]pyridin-6-yl]ethyl]-3-benzylurea]",0.103
9,"COc1cc(C(=O)N2[C@H]3CC[C@@H]2[C@H](N)C3)cc2nc(-c3cc4ccc([C@@H](C)NC(=O)OC(C)C)nc4n3CC3CC3)c(C)n12 [Example 254, propan-2-yl~{N}-[(1~{R})-1-[2-[7-[(1~{R}, 2~{R},4~{S})-2-amino-7-azabicyclo[2.2.1]heptane-7-carbonyl]-5-methoxy-3-methylimidazo [1,2-a]pyridin-2-yl]-1-(cyclopropylmethyl)pyrrolo [2,3-b]pyridin-6-yl]ethyl] carbamate]",0.11
10,"COc1cc(C(=O)N2[C@H]3CC[C@@H]2[C@H](N)C3)cc2nc(-c3cc4ccc(N5[C@@H]6CC[C@@H](C6)CS5(=O)=O)nc4n3CC3CC3)c(C)n12 [Example 473, [(1~{R},2~{R},4~{S})-2-amino-7-azabicyclo [2.2.1]heptan-7-yl]-[2-[1-(cyclopropylmethyl)-6-[(1~ {R},5~{S})-3,3-dioxo-3$l^6-thia-2-azabicyclo[3.2.1]octan-2-yl]pyrrolo [2,3-b]pyridin-2-yl]-5-methoxy-3-methylimidazo [1,2-a]pyridin-7-yl] methanone]",0.117
11,"CC[C@@](C)(O)c1ccc2cc(-c3nc4cc(C(=O)N5[C@H]6CC[C@@H]5[C@H](N)C6)cc(OC)n4c3C)n(CC3CC3)c2n1 [Example 566, [(1~{R},2~{R},4~{S})-2-amino-7-azabicyclo [2.2.1]heptan-7-yl]-[2-[1-(cyclopropylmethyl)-6-[(2~{R})-2-hydroxybutan-2-yl]pyrrolo[2,3-b]pyridin-2-yl]-5-methoxy-3-methylimidazo [1,2-a]pyridin-7-yl]methanone]",0.123

# Stronger by IC50, values ahead:
row,IC50 [µM],Structure (SMILES)
1,0.0711,"COc1cc(C(=O)N2[C@H]3CC[C@@H]2[C@H](N)C3)cc2nc(-c3cc4ccc([C@@H](C)Nc5cnccn5)nc4n3CC3CC3)c(C)n12 [Example 263, [(1~{R},2~{R},4~{S})-2-amino-7-azabicyclo [2.2.1]heptan-7-yl]-[2-[1-(cyclopropylmethyl)-6-[(1~{R})-1-(pyrazin-2-ylamino)ethyl]pyrrolo [2,3-b]pyridin-2-yl]-5-methoxy-3-methylimidazo[1,2-a]pyridin-7-yl]methanone]"
2,0.07,"COc1cc(C(=O)N2[C@H]3CC[C@@H]2[C@H](N)C3)cc2nc(-c3cc4ccc([C@@H](C)NC(=O)N5CC(C)(C(=O)O)C5)nc4n3CC3CC3)c(C)n12 [Example 230, 1-[[(1~{R})-1-[2-[7-[(1~{R},2~{R},4~{S})-2-amino-7-azabicyclo[2.2.1]heptane-7-carbonyl]-5-methoxy-3-methylimidazo [1,2-a]pyridin-2-yl]-1-(cyclopropylmethyl)pyrrolo [2,3-b]pyridin-6-yl]ethyl]carbamoyl]-3-methylazetidine-3-carboxylic acid]"
3,0.0486,COc1cc(C(=O)N2[C@H]3CC[C@@H]2[C@H](N)C3)cc2nc(-c3cc4ccc([C@@H](C)NC(=O)N5CCC(C(=O)O)C5)nc4n3CC3CC3)c(C)n12 (stereo partly shown) [Example 228]
4,0.0372,"COc1cc(C(=O)N2[C@H]3CC[C@@H]2[C@H](N)C3)cc2nc(-c3cc4ccc([C@@H](C)NC(=O)C5C(F)(F)C56CC6)nc4n3CC3CC3)c(C)n12 (stereo partly shown) [Example 53, ~{N}-[(1~{R})-1-[2-[7-[(1~{R},2~{R}, 4~{S})-2-amino-7-azabicyclo[2.2.1]heptane-7-carbonyl]-5-methoxy-3-methylimidazo[1,2-a]pyridin-2-yl]-1-(cyclopropylmethyl)pyrrolo[2,3-b]pyridin-6-yl]ethyl]-2,2-difluorospiro[2.2] pentane-1-carboxamide]"
5,0.0315,"COc1cc(C(=O)N2[C@H]3CC[C@@H]2[C@H](N)C3)cc2nc(-c3cc4ccc([C@@H](C)NC(=O)NCc5ncccn5)nc4n3CC3CC3)c(C)n12 [Example 224, 1-[(1~{R})-1-[2-[7-[(1~{R},2~{R},4~{S})-2-amino-7-azabicyclo[2.2.1]heptane-7-carbonyl]-5-methoxy-3-methylimidazo [1,2-a]pyridin-2-yl]-1-(cyclopropylmethyl)pyrrolo [2,3-b]pyridin-6-yl]ethyl]-3-(pyrimidin-2-ylmethyl)urea]"
